Paper PMC7845594, “Novel Immune Modulators Enhance Caenorhabditis elegans Resistance to Multiple Pathogens” (mSphere, 2021)
“Also recorded” adds a separate entry of the source.

Assays:
CCRF-CEM = details: cited from earlier work
RWPE-1 cells = assay: MTT cell viability assay; details: RWPE-1, 10, 50, or 100 µM, 24 h; cell death greater than 30% = toxicity
Experimental: (B) 1.5 × 10^4 RWPE-1 immortalized prostate cells were seeded into each well of a 96-well plate. […] The viability was normalized to a DMSO solvent control. Six wells were used per condition, and an average of three biological replicates is shown.
We also tested compound toxicity in RWPE-1 cells, a well-established, noncancerous, immortalized prostate epithelial cell line available in the lab. Cells were seeded in 96-well plates and allowed to attach before media containing various concentrations of one of the compounds (or DMSO as a control) were added. […] Cell death greater than 30% was considered evidence of toxicity (Fig. 3B).
Then, 100 µl of DMSO was added, and the absorbance at 590 nm measured. MTT assays were performed in triplicate.

MOLT-4 = details: cited from earlier work
[1] = test system: GroEL and GroES families of bacterial chaperones; design: method as in PMID 27184767, PMID 24418775; details: cited from earlier work
C. elegans transcriptome = assay: Gene ontology enrichment (DAVID) of up-/downregulated genes; design: species or system Caenorhabditis elegans; details: upregulated genes, 100 µM, 8 h
Experimental: To gain additional insight into the effect of LK molecules on C. elegans, young-adult, wild-type worms were treated with each drug at 100 µM for 8 h in the absence of pathogen. RNA was collected, and transcriptome profiling was performed.
Supplementary file : TABLE S4 Enriched gene ontology categories. […] Redundant gene ontology categories were removed. Download Table S4, XLSX file, 0.02 MB.
Transcriptome profiling was performed on ∼6,000 wild-type, young adult worms incubated with either LK molecules or DMSO for 8 h. RNA isolation was performed using TRIzol extraction, followed by cleanup using RNeasy columns according to the manufacturer’s protocol. Each condition was analyzed in triplicate. Microarray data have been deposited in the GEO database, accession number GSE137516. […] Clustering and generation of the heat map was performed using Cluster 3.0 ([98]) and Treeview ([99]), respectively. Fold change of genes were normalized to average fold change of that gene over all clustered conditions. Genes and conditions were clustered using Euclidean distance and average linkages. […] Microarray data for non-LK molecules were collected from GEO omnibus. WormEXP was used as a secondary method for confirming statistical significance of potential pathways stimulated by each of the LK molecules ([100]). Gene ontologies were generated using DAVID ([101], [102]).

ESRE network = assay: hsp-16.1p::GFP reporter (ESRE activation); type: in vivo, Caenorhabditis elegans; details: 50 or 100 μM, no pathogen
Source text: Previous work from our lab has established that the ESRE network plays an important role in the resistance of C. elegans to pyoverdine, the main virulence determinant in liquid killing, and recent evidence has shown that ESRE activation depends on increased reactive oxygen species (ROS) ([23], [38], [39]). To evaluate ESRE activation, worms carrying an hsp-16.1p::GFP reporter (which contains two ESRE motifs and was previously used as an indicator of ESRE activation [[39][–][41]]), were exposed to 50 or 100 μM LK35, LK38, LK56, juglone (positive control), or DMSO. […] ROS level was assessed based on the fluorescence of dihydroethidium (DHE; a ROS-specific dye) using a COPAS FlowSort for flow vermimetry.
Young adult wild-type (A), hsp-4p::GFP (B), hsp-16.1p::GFP (C), or rpt-3::GFP (D) worms were incubated with LK molecules at 50 or 100 µM, DMSO control, or positive controls. For panel A, the worms were treated with compound for 10 h, and then the worms were stained with 4 µM DHE for 1 h before washing and fluorescence measurement. For panels B to D, the worms were treated with compound for 15 h prior to fluorescence measurement. Mean values from at least three biological replicates are shown. *, P < 0.05; **, P < 0.01; ***, P < 0.001 (compared to the solvent control). P values were calculated using Student’s t test. Error bars represent the standard error of the mean. […]

SMILES	Toxicity in mammalian cells (MTT viability) (RWPE-1 cells)	Fold Enrichment, GO term Cytochrome P450 (C. elegans transcriptome)	also measured
COC(=O)/C=C/C(=O)Nc1ccccc1 [LK32]	poorly tolerated; also recorded: substantial toxicity	–	LD50 (CCRF-CEM): ~40 µM; LD50 (MOLT-4): ~40 µM
CNC(=O)Oc1c(Br)cc2sc(=O)oc2c1Br [LK34]	some toxicity	–	Inhibition of GroEL and GroES chaperones [1]: potent inhibitor
CN(C)/N=N/c1ccc(-c2cn(Cc3ccccc3)cn2)cc1 [LK38]	–	12.2	–
O=c1cc(CNc2ccc(Br)cc2)nc2sccn12 [LK56]	–	12.9	ESRE activation (hsp-16.1p::GFP) (ESRE network): weak activation
